In the supplement of paper PMC10307832:

Experiments:
Assay in all cases: relative viability (nuclei count vs DMSO), 5 days (fraction); higher = more cells survive
[1] = compound: C[As](C)SC[C@H](NC(=O)CC[C@H](N)C(=O)O)C(=O)NCC(=O)O [Darinaparsin] + CCNC(=O)c1noc(-c2cc(C(C)C)c(O)cc2O)c1-c1ccc(CN2CCOCC2)cc1 [Luminespib] (partner 0.01 µM)
Outline: (§1)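 Nuclei were stained with Hoechst during a one-step fixation (final 0.05% Triton X-100, 1% formaldehyde, 1 ug/ml Hoechst) carried out 5 days after dosing, then counted on 4× images. The cells, lung cancer lines in 1536-well plates, had been dosed by pin tool the day after seeding with one drug alone or a fixed anchor-drug dose plus five library-drug doses (not always all listed) in √10 steps. Relative viability is the nuclei count in treated wells divided by that in vehicle wells, and each value is the median of duplicate plates.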

AZ628 + Decitabine = compound: CC1=C(C=C(C=C1)NC(=O)C2=CC(=CC=C2)C(C)(C)C#N)NC3=CC4=C(C=C3)N=CN(C4=O)C [AZ628] + Nc1ncn([C@H]2C[C@H](O)[C@@H](CO)O2)c(=O)n1 [Decitabine] (partner 2 µM)
Outline: as §1

QS11 + Bortezomib = compound: C1CC2=C(C1)C=C(C=C2)OC3=NC(=C4C(=N3)N(C=N4)CC5=CC=C(C=C5)C6=CC=CC=C6)N[C@@H](CC7=CC=CC=C7)CO [QS11] + CC(C)C[C@H](NC(=O)[C@H](Cc1ccccc1)NC(=O)c1cnccn1)B(O)O [Bortezomib] (partner 0.002 µM)
Outline: as §1

QS11 + Crizotinib = compound: C1CC2=C(C1)C=C(C=C2)OC3=NC(=C4C(=N3)N(C=N4)CC5=CC=C(C=C5)C6=CC=CC=C6)N[C@@H](CC7=CC=CC=C7)CO [QS11] + C[C@@H](Oc1cc(-c2cnn(C3CCNCC3)c2)cnc1N)c1c(Cl)ccc(F)c1Cl [Crizotinib] (partner 1 µM)
Outline: as §1

Row | Cell Line | relative viability ([1]; first compound 0.08 µM) | relative viability ([1]; first compound 0.8 µM) | relative viability ([1]; first compound 2.53 µM) | relative viability ([1]; first compound 8 µM) | relative viability (AZ628 + Decitabine; first compound 0.08 µM) | relative viability (AZ628 + Decitabine; first compound 0.253 µM) | relative viability (AZ628 + Decitabine; first compound 0.8 µM) | relative viability (AZ628 + Decitabine; first compound 2.53 µM) | relative viability (AZ628 + Decitabine; first compound 8 µM) | relative viability (QS11 + Bortezomib; first compound 0.08 µM) | relative viability (QS11 + Bortezomib; first compound 0.253 µM) | relative viability (QS11 + Bortezomib; first compound 0.8 µM) | relative viability (QS11 + Bortezomib; first compound 2.53 µM) | relative viability (QS11 + Bortezomib; first compound 8 µM) | relative viability (QS11 + Crizotinib; first compound 0.08 µM) | relative viability (QS11 + Crizotinib; first compound 0.253 µM) | relative viability (QS11 + Crizotinib; first compound 0.8 µM) | relative viability (QS11 + Crizotinib; first compound 2.53 µM) | relative viability (QS11 + Crizotinib; first compound 8 µM)
1 | NCI-H647 | 0.176 | 0.154 | 0.0855 | 0.215 | 0.383 | 0.452 | 0.329 | 0.383 | 0.332 | 0.938 | 0.987 | 0.976 | 1.08 | 0.894 | 1.25 | 1.3 | 0.937 | 0.992 | 0.706
2 | NCI-H1734 | 0.201 | 0.16 | 0.2 | 0.19 | 0.515 | 0.549 | 0.5 | 0.457 | 0.344 | 0.932 | 0.913 | 0.848 | 0.822 | 0.738 | 0.65 | 0.656 | 0.658 | 0.555 | 0.619
3 | NCI-H1993 | 0.957 | 0.698 | 0.724 | 0.723 | 0.587 | 0.518 | 0.639 | 0.463 | 0.55 | 0.959 | 1 | 1.04 | 1.35 | 0.998 | 0.974 | 0.756 | 0.868 | 0.827 | 0.771
4 | NCI-H23 | 0.212 |  | 0.217 | 0.193 | 0.298 | 0.315 | 0.232 | 0.291 | 0.269 | 1.03 | 0.926 | 0.978 | 0.722 | 1 | 0.473 | 0.462 | 0.473 | 0.385 | 0.44
5 | NCI-H1355 | 0.702 | 0.725 | 0.559 | 0.568 | 0.414 | 0.322 | 0.381 | 0.344 | 0.265 | 1.2 | 1.19 | 0.862 | 1.21 | 1.13 | 0.99 | 1.58 | 0.823 | 0.915 | 0.972
6 | NCI-H2405 | 0.822 | 0.611 | 0.61 | 0.689 | 0.552 | 0.53 | 0.488 | 0.495 | 0.408 | 0.926 | 0.946 | 0.895 | 1.03 | 1.03 | 0.822 | 0.883 | 0.808 | 0.88 | 0.95
7 | NCI-H2023 | 0.927 | 0.714 | 0.827 | 0.882 | 0.292 | 0.229 | 0.24 | 0.228 | 0.252 | 0.917 | 0.996 | 0.877 | 0.994 | 0.898 | 0.774 | 0.537 | 0.586 | 0.641 | 0.648
8 | PC-3 [JPC-3] | 0.807 | 0.721 | 0.698 | 0.87 | 0.86 | 0.813 | 0.924 | 0.827 | 0.642 | 0.827 | 0.88 | 0.767 | 0.828 | 0.678 | 0.957 | 0.97 | 0.949 | 1.03 | 1.01
9 | LXF-289 | 0.773 | 0.499 | 0.578 | 1.06 | 0.403 | 0.378 | 0.394 | 0.371 | 0.372 | 1 | 0.996 | 0.791 | 0.819 | 0.614 | 0.814 | 0.807 | 0.678 | 0.687 | 0.617
10 | NCI-H1437 | 1.32 | 1.21 | 1.08 | 1.36 | 0.606 | 0.548 | 0.531 | 0.613 | 0.659 | 0.569 | 0.325 | 0.459 | 0.402 | 0.336 | 0.99 | 1.04 | 0.862 | 0.747 | 0.744
11 | NCI-H838 | 0.29 | 0.265 | 0.284 | 0.283 | 0.49 | 0.504 | 0.476 | 0.455 | 0.479 | 0.942 | 0.641 | 0.684 | 0.851 | 0.923 | 0.937 | 0.788 | 0.576 | 0.746 | 0.761
12 | NCI-H650 | 0.81 | 0.793 | 0.872 | 0.831 | 0.349 | 0.396 | 0.46 | 0.335 | 0.336 | 0.681 | 0.625 | 0.815 | 0.819 | 0.888 | 0.722 | 0.726 | 0.753 | 0.55 | 0.607
13 | NCI-H520 | 0.219 | 0.21 | 0.222 | 0.192 | 0.563 | 0.488 | 0.547 | 0.472 | 0.382 |  | 0.593 | 0.541 | 0.479 | 0.471 |  | 0.907 | 0.831 | 0.587 | 0.932
14 | H3255 | 0.88 | 0.94 | 0.807 | 0.95 | 0.723 | 0.504 | 0.567 | 0.51 | 0.379 | 0.813 | 0.782 |  | 0.761 | 0.746 | 0.869 | 0.973 |  | 1.02 | 0.847
15 | PC-14 | 0.19 | 0.185 | 0.157 | 0.0932 | 0.255 | 0.228 | 0.168 | 0.19 | 0.166 | 0.7 | 0.887 | 0.979 | 0.741 | 0.731 | 0.851 | 0.896 | 0.871 | 0.848 | 0.911
16 | NCI-H3122 | 0.0869 | 0.0882 | 0.107 | 0.112 | 0.307 | 0.21 | 0.221 | 0.239 | 0.161 | 1.03 | 1.1 | 0.67 | 1.07 | 0.864 | 0.25 | 0.3 | 0.313 | 0.436 | 0.616
17 | NCI-H596 | 1.14 | 1.12 | 0.951 | 0.966 | 1.02 | 1.12 | 1.13 | 1.1 | 0.933 |  | 0.807 | 1.15 | 0.869 | 1.06 | 1.03 | 0.862 | 0.963 | 0.991 | 1.04
18 | NCI-H661 | 0.934 | 0.874 | 1.08 | 1.04 | 0.601 | 0.491 | 0.445 | 0.451 | 0.482 | 0.718 | 0.685 | 0.685 | 0.912 | 0.919 | 0.887 | 1.08 | 0.753 | 0.872 | 0.985
19 | NCI-H727 | 0.175 | 0.314 | 0.285 | 0.343 | 0.918 |  |  | 0.644 | 0.345 | 0.804 | 0.72 | 0.893 | 0.739 | 0.35 | 0.813 | 0.958 | 0.857 | 0.729 | 0.631
20 | NCI-H1666 | 1.05 | 0.897 | 1.24 | 1.07 | 0.744 | 0.691 | 0.625 | 0.62 | 0.657 | 0.83 | 0.722 | 0.74 | 0.719 | 0.564 | 0.995 | 0.808 | 0.668 | 0.52 | 0.432
21 | COR-L23 | 1.12 | 0.64 | 0.661 | 0.64 | 0.471 | 0.43 | 0.349 | 0.453 | 0.27 | 1.08 | 1.13 | 0.86 | 0.942 | 0.765 | 0.672 | 0.642 | 0.481 | 0.447 | 0.481
22 | NCI-H460 | 0.0325 | 0.033 | 0.0441 | 0.0347 | 0.512 | 0.456 | 0.38 | 0.532 | 0.165 | 1.04 | 1.13 | 0.819 | 0.973 | 0.345 | 1.17 | 0.868 | 0.684 | 0.31 | 0.177
23 | LC-2-ad | 1.11 | 1.02 | 0.797 | 0.734 | 0.821 | 0.782 | 0.816 | 0.732 | 0.453 | 0.987 | 1.03 | 0.651 | 0.962 | 1.1 | 0.468 | 0.479 | 0.398 | 0.443 | 0.495
24 | BEN | 0.409 | 0.366 | 0.511 | 0.522 | 0.758 | 0.637 | 0.651 | 0.668 | 0.735 | 0.635 | 1.01 | 1.07 | 0.916 | 1.07 | 0.801 | 1.06 | 0.978 | 0.736 | 1.09
25 | NCI-H1651 | 0.886 | 0.831 | 0.926 | 1.16 | 0.67 | 0.571 | 0.653 | 0.683 | 0.593 | 0.954 | 1.06 | 0.804 | 0.959 | 0.994 | 0.888 | 0.95 | 0.79 | 0.903 | 0.899
26 | EKVX | 0.872 | 0.924 | 0.926 | 0.962 | 0.367 | 0.369 | 0.401 | 0.266 | 0.287 | 0.941 | 1.09 |  | 1.07 | 1.1 | 1.13 | 1.03 |  | 0.749 | 1.2
27 | COR-L 105 | 0.867 | 0.775 | 0.712 | 0.682 | 0.74 | 0.692 | 0.668 | 0.613 | 0.559 | 0.78 | 0.814 | 0.772 | 0.717 | 0.519 | 1.04 | 0.735 | 0.616 | 0.618 | 0.702
28 | NCI-H1650 | 0.238 | 0.214 | 0.187 | 0.173 | 0.586 | 0.485 | 0.429 | 0.382 | 0.615 | 0.183 | 0.215 | 0.18 | 0.197 | 0.186 | 0.994 | 0.843 | 0.868 | 0.986 | 0.894
